Laboratory results published in PubChem BioAssay AID2060910 (Molecular Pharmacology Branch, DTP, NCI, 2025).

System: 242566-281-R-J2-PDC complex spheroid viability
Assay: Anticancer human tumor 242566-281-R-J2-PDC patient-derived pancreatic carcinoma cell line growth inhibition [RAS]
Settings: for IC50: curve of first compound; for viability, T/C: stronger effect = lower value; active = viability on the fitted dose curve at most 10% of control; inactive = the rest
How it was run: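 Multi-cell-type spheroids: tumor cells plus HUVEC endothelial cells and mesenchymal stem cells. RAS-pathway inhibitors were combined with targeted agents, each dosed in half-log steps down from clinical Cmax, or from 10 microM when Cmax was unknown.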

[1] = second compound 0.000949 µM, first compound 0.000949 µM
[2] = second compound 0.000949 µM, first compound 0.003 µM
[3] = second compound 0.000949 µM, first compound 0.00949 µM
[4] = second compound 0.000949 µM, first compound 0.03 µM
[5] = second compound 0.000949 µM, first compound 0.0949 µM
[6] = second compound 0.000949 µM, first compound 0.3 µM
[7] = second compound 0.003 µM, first compound 0.000949 µM
[8] = second compound 0.003 µM, first compound 0.003 µM
[9] = second compound 0.003 µM, first compound 0.00949 µM
[10] = second compound 0.003 µM, first compound 0.03 µM
[11] = second compound 0.003 µM, first compound 0.0949 µM
[12] = second compound 0.003 µM, first compound 0.3 µM
[13] = second compound 0.00949 µM, first compound 0.000949 µM
[14] = second compound 0.00949 µM, first compound 0.003 µM
[15] = second compound 0.00949 µM, first compound 0.00949 µM
[16] = second compound 0.00949 µM, first compound 0.03 µM
[17] = second compound 0.00949 µM, first compound 0.0949 µM
[18] = second compound 0.00949 µM, first compound 0.3 µM
[19] = second compound 0.03 µM, first compound 0.000949 µM
[20] = second compound 0.03 µM, first compound 0.003 µM
[21] = second compound 0.03 µM, first compound 0.00949 µM
[22] = second compound 0.03 µM, first compound 0.03 µM
[23] = second compound 0.03 µM, first compound 0.0949 µM
[24] = second compound 0.03 µM, first compound 0.3 µM
[25] = second compound 0.0949 µM, first compound 0.000949 µM
[26] = second compound 0.0949 µM, first compound 0.003 µM
[27] = second compound 0.0949 µM, first compound 0.00949 µM
[28] = second compound 0.0949 µM, first compound 0.03 µM
[29] = second compound 0.0949 µM, first compound 0.0949 µM
[30] = second compound 0.0949 µM, first compound 0.3 µM
[31] = second compound 0.3 µM, first compound 0.000949 µM
[32] = second compound 0.3 µM, first compound 0.003 µM
[33] = second compound 0.3 µM, first compound 0.00949 µM
[34] = second compound 0.3 µM, first compound 0.03 µM
[35] = second compound 0.3 µM, first compound 0.0949 µM
[36] = second compound 0.3 µM, first compound 0.3 µM
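Also: spheroids exposed to compound for 7 days before readout.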
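For viability, T/C in this document: 100% = DMSO vehicle control wells.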

CCc1c2c(nc3ccc(O)cc13)-c1cc3c(c(=O)n1C2)COC(=O)[C@]3(O)CC + CCn1c(-c2cc(N3CCN(C)CC3)cnc2C(C)OC)c2c3cc(ccc31)-c1csc(n1)CC(NC(=O)C1CC1C)C(=O)N1CCCC(N1)C(=O)OCC(C)(C)C2
inactive: viability, T/C [1] 101% | viability, T/C [2] 89% | viability, T/C [3] 49.6% | viability, T/C [4] 40.2% | viability, T/C [5] 22.3% | viability, T/C [6] 9.11% | viability, T/C [7] 92.3% | viability, T/C [8] 62.8% | viability, T/C [9] 43.8% | viability, T/C [10] 29.8% | viability, T/C [11] 19.4% | viability, T/C [13] 48.8% | viability, T/C [14] 39.1% | viability, T/C [15] 38.8% | viability, T/C [16] 24.8% | viability, T/C [17] 17.9% | viability, T/C [18] 12.2% | viability, T/C [19] 33% | viability, T/C [20] 32.8% | viability, T/C [21] 27% | viability, T/C [22] 21.1% | viability, T/C [23] 13.9% | viability, T/C [24] 11.9% | viability, T/C [25] 22.9% | viability, T/C [26] 24.1% | viability, T/C [27] 21.8% | viability, T/C [28] 15.9% | viability, T/C [29] 11.2% | viability, T/C [31] 22.7% | viability, T/C [32] 20.4% | viability, T/C [33] 18.1% | viability, T/C [34] 12.5% | viability, T/C [35] 13.3%
6.76 nM: IC50 (second compound 0.003 µM)
active: viability, T/C [12] 8.62% | viability, T/C [30] 9.7% | viability, T/C [36] 8.58%
14.5 nM: IC50 (second compound 0.000949 µM)
< 0.949 nM: IC50 (second compound 0.00949 µM) | IC50 (second compound 0.03 µM) | IC50 (second compound 0.0949 µM) | IC50 (second compound 0.3 µM)

CC1(C)CCC(Nc2ncc(C(F)(F)F)c(-c3c[nH]c4c(P(C)(C)=O)c(C#N)ccc34)n2)CN1 (centres undefined) + CCn1c(-c2cccnc2C(C)OC)c2c3cc(ccc31)N1CCOC(CC(NC(=O)C(C(C)C)N(C)C(=O)C3(F)CCN(C(=O)C#CC(C)(C)N(C)C)CC3)C(=O)N3CCCC(N3)C(=O)OCC(C)(C)C2)C1
> 300 nM: IC50 (second compound 0.000949 µM) | IC50 (second compound 0.003 µM) | IC50 (second compound 0.00949 µM) | IC50 (second compound 0.03 µM) | IC50 (second compound 0.0949 µM) | IC50 (second compound 0.3 µM)
inactive: viability, T/C [1] 114% | viability, T/C [2] 100% | viability, T/C [3] 77.1% | viability, T/C [4] 97.6% | viability, T/C [5] 94% | viability, T/C [6] 70.7% | viability, T/C [7] 111% | viability, T/C [8] 86% | viability, T/C [9] 82.8% | viability, T/C [10] 88.2% | viability, T/C [11] 95.4% | viability, T/C [12] 73.6% | viability, T/C [13] 109% | viability, T/C [14] 86.5% | viability, T/C [15] 92.3% | viability, T/C [16] 90.7% | viability, T/C [17] 90.5% | viability, T/C [18] 82.9% | viability, T/C [19] 95.4% | viability, T/C [20] 103% | viability, T/C [21] 96% | viability, T/C [22] 91.1% | viability, T/C [23] 70.4% | viability, T/C [24] 93.4% | viability, T/C [25] 88.2% | viability, T/C [26] 93.4% | viability, T/C [27] 90.3% | viability, T/C [28] 84.8% | viability, T/C [29] 64.8% | viability, T/C [30] 79.2% | viability, T/C [31] 91% | viability, T/C [32] 83.9% | viability, T/C [33] 75.2% | viability, T/C [34] 63.8% | viability, T/C [35] 71.8% | viability, T/C [36] 79.8%
